{"source": "patent US11124486B2", "about": "“6-membered heterocyclic derivatives and pharmaceutical composition comprising the same” (Shionogi & Co., Ltd., priority 2015, dated 2021)"}
{"target": "human P2X7 receptor (Homo sapiens, UniProt Q99572, R270H/Y155H)", "assay": "Evaluation of a human P2X7 receptor inhibitory activity (Yo-Pro uptake, BzATP stimulation, FLIPR TETRA)", "assay_type": "cell-based", "conditions": "1321N1 cells expressing human P2X7 receptor; BzATP stimulation, Yo-Pro uptake; read-out: IC50 (antagonistic activity for the human P2X7 receptor)", "description": "(§1) Test Example 1 Evaluation of a Human P2X7 Receptor Inhibitory Activity\n(§2) Stably expressing cell line (1321N1 cell transfected with the human P2X7 receptor gene (GenBank accession number NM_002502.5 including T606C and G952A SNP)) was used. The cells were seeded in a 384-well microtiter plate at a concentration of 8000 cells/well and cultured in the medium (10% fetal bovine serum, 25 mM HEPES, 1% penicillin and streptomycin in DMEM) for one day at 37° C. under 5% carbon dioxide atmosphere. After replacing with 20 μL of the HBSS buffer (20 mM HEPES, 55.6 mM D-glucose, 1×HBSS(−), pH7.4-7.5). 16 μL of 17.3 μM Yo-Pro solution in the HBSS buffer was added. The plate was placed in high-throughput cellular screening system FLIPR TETRA (Molecullar Devices, LLC.) and 15 μL of 130 μM BzATP solution in the HBSS buffer was added. Measurement, of fluorescence intensity by FLIPR TETRA was started. After eight minutes, 15 μL of DMSO solutions containing different concentrations of the compound of the present invention as prepared by dilution with the HBSS buffer were dispensed to each well through the built-in automatic dispenser, and the measurement of fluorescence intensity was continued for 20 minutes. […] Changing values of fluorescence intensity by the compound of the present invention were calculated by difference between maximum and minimum fluorescence intensity for 20 minutes. Inhibition ratios (%) were calculated from the following equation:\n(§3) [formula] IC50 was calculated using Logistic approximation.", "units": {"IC50": "nM"}}
{"smiles": "COc1cn(Cc2ccc(F)c(Cl)c2)c(Nc2cc3sc(C)nc3cc2C)cc1=O", "note": "[Compound I-0033]", "IC50": 49}
{"smiles": "COc1cn(Cc2cc(F)cc(F)c2)c(NCc2cccc(Cl)c2C)nc1=O", "note": "[Compound I-0452]", "IC50": 110}
{"smiles": "COc1cn(Cc2ccc(F)c(Cl)c2)c(Oc2cc(C)c(C)cc2C)nc1=O", "note": "[Compound I-0358]", "IC50": 160}
{"target": "human P2X7 receptor (Homo sapiens, UniProt Q99572, R270H/Y155H)", "assay": "Evaluation of a human P2X7 receptor inhibitory activity (Yo-Pro uptake, BzATP stimulation, FLIPR TETRA)", "assay_type": "cell-based", "conditions": "1321N1 cells expressing human P2X7 receptor; BzATP stimulation, Yo-Pro uptake; read-out: IC50 (antagonistic activity for the human P2X7 receptor), class", "description": "as §1, §2, §3", "units": {"IC50": "nM"}}
{"smiles": "COc1cc(C)c(Nc2nc(=O)c(OC)cn2Cc2cc(F)cc(Cl)c2)cc1C", "note": "[Compound I-0446]", "IC50": "< 10"}
{"smiles": "COc1cc(C)c(Nc2nc(=O)c(OC)cn2Cc2ccc(F)c(Cl)c2)cc1Cl", "note": "[Compound I-0465]", "IC50": "< 10"}
{"smiles": "Cc1c(Cl)cccc1Nc1nc(=O)c(OOC(C)(C)C)cn1Cc1ccccc1", "note": "[Compound I-0111]", "IC50": "100 to 500"}
{"smiles": "COc1cn(Cc2ccccc2)c(Oc2cc(C)c(C)cc2C)nc1=O", "note": "[Compound I-0357]", "IC50": "500 to 1000"}
{"smiles": "COc1cccc(Nc2nc(=O)c(OC)cn2Cc2cccc(Cl)c2)c1C", "note": "[Compound I-0476]", "IC50": "< 10"}
{"smiles": "COc1cn(Cc2cc(F)cc(Cl)c2)c(Nc2ccc(C)cc2C)nc1=O", "note": "[Compound I-0462]", "IC50": "10 to 100"}
{"smiles": "COc1cn(Cc2cc(F)cc(Cl)c2)c(Nc2cc(OCC(F)(F)F)ccc2C)nc1=O", "note": "[Compound I-0498]", "IC50": "100 to 500"}
{"smiles": "CCOc1ccc(C)c(Nc2nc(=O)c(OC)cn2Cc2ccc(F)c(F)c2)c1", "note": "[Compound I-0457]", "IC50": "< 10"}
{"smiles": "CCOc1ccc(C)c(Nc2nc(=O)c(OC)cn2Cc2cc(F)cc(F)c2)c1", "note": "[Compound I-0458]", "IC50": "10 to 100"}
{"smiles": "COc1cn(Cc2ccc(F)c(Cl)c2)c(Nc2cc(S(C)(=O)=O)c(C)cc2C)nc1=O", "note": "[Compound I-0449]", "IC50": "< 10"}
{"smiles": "COc1cn(Cc2ccccc2)c(Nc2cccc(C)c2Cl)nc1=O", "note": "[Compound I-0112]", "IC50": "10 to 100"}
{"smiles": "COc1cn(Cc2cccc(Cl)c2)c(Nc2cccc(C(F)(F)F)c2C)nc1=O", "note": "[Compound I-0466]", "IC50": "10 to 100"}
{"smiles": "COc1cn(Cc2ccc(F)c(F)c2)c(Nc2ccc(C)cc2C)nc1=O", "note": "[Compound I-0461]", "IC50": "< 10"}
{"smiles": "COc1cccc(Nc2nc(=O)c(OC)cn2Cc2ccc(F)c(F)c2)c1C", "note": "[Compound I-0477]", "IC50": "< 10"}
{"smiles": "COc1cc(C)c(Nc2nc(=O)c(OC)cn2Cc2ccccc2)cc1Cl", "note": "[Compound I-0464]", "IC50": "< 10"}
{"smiles": "COc1cn(Cc2ccccc2)c(Nc2cc(S(C)(=O)=O)c(C)cc2C)nc1=O", "note": "[Compound I-0448]", "IC50": "10 to 100"}
{"smiles": "COc1cn(Cc2cc(F)cc(F)c2)c(Nc2ccc(C)cc2C)nc1=O", "note": "[Compound I-0463]", "IC50": "< 10"}
{"smiles": "COc1cc(C)c(Nc2nc(=O)c(OC)cn2Cc2cccc(F)c2)cc1C", "note": "[Compound I-0249]", "IC50": "< 10"}
{"smiles": "CCOc1ccc(C)c(Nc2nc(=O)c(OC)cn2Cc2ccc(F)c(Cl)c2)c1", "note": "[Compound I-0459]", "IC50": "< 10"}
{"smiles": "CCc1ccc(F)cc1Nc1nc(=O)c(OC)cn1Cc1ccccc1", "note": "[Compound I-0450]", "IC50": "10 to 100"}
{"smiles": "COc1cccc(Nc2nc(=O)c(OC)cn2Cc2ccc(F)c(Cl)c2)c1C", "note": "[Compound I-0478]", "IC50": "< 10"}
{"smiles": "CCc1cc(OC)ccc1Nc1nc(=O)c(OC)cn1Cc1cc(F)cc(Cl)c1", "note": "[Compound I-0447]", "IC50": "< 10"}
{"smiles": "COc1cn(Cc2cccc(OC(F)F)c2)c(Nc2cccc(Cl)c2C)nc1=O", "note": "[Compound I-0422]", "IC50": "500 to 1000"}
{"smiles": "COc1cc(Nc2nc(=O)c(OC)cn2Cc2cccc(F)c2)c(C)cc1Cl", "note": "[Compound I-0474]", "IC50": "< 10"}
{"smiles": "COc1cc(Nc2nc(=O)c(OC)cn2Cc2ccc(F)cc2)c(C)cc1Cl", "note": "[Compound I-0475]", "IC50": "< 10"}
{"smiles": "CCOc1ccc(C)c(Nc2nc(=O)c(OC)cn2Cc2cc(F)cc(Cl)c2)c1", "note": "[Compound I-0460]", "IC50": "10 to 100"}
{"target": "human P2X7 receptor (Homo sapiens, UniProt Q99572, R270H/Y155H)", "assay": "Evaluation of a human P2X7 receptor inhibitory activity (Yo-Pro uptake, BzATP stimulation, FLIPR TETRA)", "assay_type": "cell-based", "conditions": "antagonistic activity for the human P2X7 receptor; 1321N1 cells expressing human P2X7, BzATP-stimulated Yo-Pro uptake; read-out: IC50", "description": "as §1, §2, §3", "units": {"IC50": "nM"}}
{"smiles": "COc1cn(Cc2ccccc2)c(Nc2ccc(C)cc2F)nc1=O", "note": "[Compound I-0762]", "IC50": "100 to 500"}
{"smiles": "COc1cn(Cc2cc(F)c(F)c(F)c2)c(Cc2cccc3[nH]c(=O)ccc23)nc1=O", "note": "[Compound I-0602]", "IC50": "100 to 500"}
{"smiles": "COc1ccc(NC2=NC(=O)CC(C)N2Cc2cc(F)c(F)c(F)c2)c(C)c1", "note": "(stereo not drawn) [Compound I-1167]", "IC50": "< 10"}
{"smiles": "COc1cc(C)c(Nc2nc(=O)cc(C)n2Cc2cc(F)c(F)c(F)c2)cc1OC", "note": "[Compound I-1153]", "IC50": "< 10"}
{"smiles": "COc1cn(Cc2ccc(F)c(Cl)c2)c(Nc2c(C)cc3c(c2C)COC3)nc1=O", "note": "[Compound I-0907]", "IC50": "< 10"}
{"smiles": "Cc1cc(F)c(-c2cccn(C)c2=O)cc1Nc1nc(=O)c(F)cn1Cc1cc(F)c(F)c(F)c1", "note": "[Compound I-1222]", "IC50": "< 10"}
{"smiles": "COC1CN(Cc2ccc(F)c(F)c2)C(Nc2cc(S(C)(=O)=O)c(C)cc2C)=NC1=O", "note": "(stereo not drawn) [Compound I-0605]", "IC50": "10 to 100"}
